ChEMBL document CHEMBL5370585, “Exploration and Biological Evaluation of 1,3-Diamino-7H-pyrrol[3,2-f]quinazoline Derivatives as Dihydrofolate Reductase Inhibitors” (J Med Chem, 2023)
pIC50: −log10 of the molar value. Values after ≈ are worked out from the molar mass of the structure shown.

Legend:
[1] = Toxicity in BALB/c mouse xenografted with mouse EMT6 cells assessed as effect on body weight at 20 mg/kg, ip measured on day 1 (reference value: 18.5 +/-0.5g); format: organism-based; settings: in vivo, 24 h, time 1 day
[2] = Toxicity in BALB/c mouse xenografted with mouse EMT6 cells assessed as effect on body weight at 20 mg/kg, ip measured on day 14 (reference value: 21.6 +/-0.6g); format: organism-based; settings: in vivo, 336 h, time 14 day
EMT6 [3] = assay: Antitumor activity against mouse EMT6 cells xenografted in BALB/c mouse model assessed as tumor growth inhibition at 20 mg/kg,ip administered every 3 days for 14 consecutive days relative to control; format: functional; design: scale not given: the % may be the effect or the level left; settings: time 14 day
[4] = Toxicity in BALB/c mouse xenografted with mouse EMT6 cells at 24 mg/kg, ip administered every 3 days for 14 consecutive days; format: organism-based; settings: in vivo, 336 h, time 14 day
EMT6 [5] = assay: Antitumor activity against mouse EMT6 cells xenografted in BALB/c mouse model assessed as tumor weight at 20 mg/kg,ip administered every 3 days for 14 consecutive days (reference value: 1.53 +/-0.26g); format: functional; settings: time 14 day
Escherichia coli = assay: Antibacterial activity against Escherichia coli ATCC 25922 incubated for 16 to 18 hrs by CLSI based broth dilution method; format: functional; settings: time 16-18 hrs
HepG2 = assay: Cytotoxicity against human HepG2 cells measured after 72 hrs by MTT assay; format: functional, cell-based; settings: HepG2, 72 h
[6] = tested on: Staphylococcus epidermidis; assay: Antibacterial activity against Staphylococcus epidermidis ATCC 12228 incubated for 16 to 18 hrs by CLSI based broth dilution method; format: functional; settings: time 16-18 hrs
HGC-27 = assay: Cytotoxicity against human HGC-27 cells measured after 72 hrs by MTT assay; format: functional, cell-based; settings: HGC-27, 72 h
[7] = target: T1, Dihydrofolate reductase (Homo sapiens) (UniProt P00374); assay: Inhibition of human DHFR at 1 uM incubated for 10 mins in presence of NADPH by colorimetry based analysis relative to control
T1 sequence (whole entry): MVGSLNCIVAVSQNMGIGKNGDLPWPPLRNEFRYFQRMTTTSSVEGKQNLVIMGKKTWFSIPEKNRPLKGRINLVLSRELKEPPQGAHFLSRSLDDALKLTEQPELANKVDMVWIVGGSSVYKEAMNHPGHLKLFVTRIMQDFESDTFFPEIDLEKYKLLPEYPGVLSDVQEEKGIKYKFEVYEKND

MCF7 = assay: Cytotoxicity against human MCF7 cells measured after 72 hrs by MTT assay; format: functional, cell-based; settings: MCF7, 72 h
Acinetobacter baumannii = assay: Antibacterial activity against Acinetobacter baumannii ATCC 19606 incubated for 16 to 18 hrs by CLSI based broth dilution method; format: functional; settings: time 16-18 hrs
HCT-116 = assay: Cytotoxicity against human HCT-116 cells measured after 72 hrs by MTT assay; format: functional, cell-based; settings: HCT-116, 72 h
Staphylococcus aureus [8] = assay: Antibacterial activity against Staphylococcus aureus ATCC 29213 incubated for 16 to 18 hrs by CLSI based broth dilution method; format: functional; settings: time 16-18 hrs
Enterococcus faecalis = assay: Antibacterial activity against Enterococcus faecalis ATCC 29212 incubated for 16 to 18 hrs by CLSI based broth dilution method; format: functional; settings: time 16-18 hrs
Staphylococcus aureus [9] = assay: Antibacterial activity against methicillin-resistant Staphylococcus aureus ATCC 43300 incubated for 16 to 18 hrs by CLSI based broth dilution method; format: functional; settings: time 16-18 hrs
[10] = Toxicity in ICR mouse assessed as median lethal dose administered as single IP dose measured upto 8 days; settings: in vivo, time < 8 day
Staphylococcus aureus [11] = assay: Drug resistance against methicillin-resistant Staphylococcus aureus ATCC 43300 assessed as fold increase in MIC measured after 10 passaging for 24 hrs; format: functional

| Structure (SMILES) | Activity [1] [g] | Activity [2] [g] | Activity (EMT6 [3]) [%] | Activity [4] | Activity (EMT6 [5]) [g] | MIC (Escherichia coli) [µg/mL] | pIC50 (HepG2) | MIC [6] [µg/mL] | pIC50 (HGC-27) | inhibition [7] [%] | pIC50 (MCF7) | MIC (Acinetobacter baumannii) [µg/mL] | pIC50 (HCT-116) | MIC (Staphylococcus aureus [8]) [µg/mL] | MIC (Enterococcus faecalis) [µg/mL] | MIC (Staphylococcus aureus [9]) [µg/mL] | LD50 at 192 h [10] [mg/kg] | fold change (FC) (Staphylococcus aureus [11]) |
| --- | --- | --- | --- | --- | --- | --- | --- | --- | --- | --- | --- | --- | --- | --- | --- | --- | --- | --- |
| CC(=O)O[C@H]1C(=O)[C@@]2(C)[C@H]([C@H](OC(=O)c3ccccc3)[C@]3(O)C[C@H](OC(=O)[C@H](O)[C@@H](NC(=O)c4ccccc4)c4ccccc4)C(C)=C1C3(C)C)[C@]1(OC(C)=O)CO[C@@H]1C[C@@H]2O [PACLITAXEL] | 18.6 | 20.1 | 53.2 | Non-Toxic | 0.71 |  |  |  |  |  |  |  |  |  |  |  |  |  |
| Nc1nc(N)c2c(ccc3c2ccn3Cc2ccc(-c3ccccc3)cc2)n1 |  |  |  |  |  | > 128 | 6.28 | ≤ 0.004 | 7.07 | 54.8 | 6.24 | > 32 | 7.49 | 1 (≈ 2.74 µM) | 0.25 (≈ 0.684 µM) | 0.5 (≈ 1.37 µM) | 154 | 8 |
